Experimental data published in paper PMC10313921, “A living ex vivo platform for functional, personalized brain cancer diagnosis” (Cell Reports Medicine, 2023).

Assays:
Assay type in all cases: cell-based, human
[1] = system: LN229 (established GBM line); test: Drug screening of LN229 tumor foci on OBSCs
Description: (§1) Tumor cells (0.17 μL, 25,000 cells) were seeded onto OBSCs 2h after slicing, with one tumor seeded in the center of each hemisphere for a total of two tumor foci per OBSC. BSM was changed 24h after slicing. Fluorescence images were taken 0 h, 24 h, and 96 h post-seeding for normalization of tumor size. Bioluminescence readouts were also taken at 0 h, 24 h, and 96 h post seeding for assessment of cell viability. Luciferin was added underneath the culture insert and allowed to incubate for 10 min before bioluminescence measurement on an AMI optical imaging system.
(§2) Tumor cells were seeded onto OBSCs 2h after slicing as described above. One day after tumor seeding, six concentrations of each drug were diluted in the media underneath each culture insert, or XRad was applied using an X-Rad 320 Precision X-ray machine (n = 4 tumor foci per concentration; n ≥ 24 tumor foci per drug per cell line). Three days after treatment, the bioluminescence of live tumor cells was measured using an AMI optical imager (Spectral Instruments) and dose-response curves were generated. Tumor survival was normalized to day one tumor fluorescence and compared to an untreated control group.
(§3) Several weighted parameters were factored into an overall drug sensitivity score.
(§4) For DSS parameters 1–6, therapeutic windows were calculated by comparing OBSC toxicity and tumor response at the doses where tumor kill passed through the DSS parameter (Table S1 and S3). For DSS parameter 7, the therapeutic window was calculated by comparing the slopes through the tumor EC50 and the OBSC tox EC50. For DSS parameter 8, the therapeutic window was calculated by comparing the areas under tumor kill and OBSC tox curves. Normalized therapeutic window ratios for DSS parameters 1–8 within each drug-tumor-OBSC interaction were calculated in the following manner: within each window, values ranged from +1 to −1, where values approaching +1 signify increasing tumor kill relative to normal tissue toxicity, and values approaching −1 indicate agents where tumors remained highly viable while toxicity to the normal OBSC tissue was elevated. DSS parameters 9–11 were determined based on the behavior of the tumor in response to the drug, as defined above.
(§5) All individually weighed parameters were added together to generate the DSS. Overall DSS from 0 to 100 signify increasing efficacy in tumor kill relative to OBSC toxicity, while scores from 0 to −100 describe scenarios in which tumors thrive more effectively than OBSCs for a given treatment. Dose-response values were calculated via linear interpolation of raw data, not from best-fit curve equations.

[2] = system: U373KO (RAD18 knockout of U373WT via CRISPR); test: Drug screening of U373KO tumor foci on OBSCs; details: U373 KO on OBSCs
Description: as §1, §2, §3, §4, §5

[3] = system: GBM8 (high-passage patient-derived GBM line); test: Drug screening of GBM8 tumor foci on OBSCs
Description: as §1, §2, §3, §4, §5

[4] = system: MS21 (low-passage patient-derived GBM line); test: Drug screening of MS21 tumor foci on OBSCs
Description: as §1, §2, §3, §4, §5

[5] = system: PDIPG (low-passage pediatric patient-derived line); test: Drug screening of PDIPG tumor foci on OBSCs
Description: as §1, §2, §3, §4, §5

[6] = system: U373WT (wild-type established GBM line); test: Drug screening of U373WT tumor foci on OBSCs
Description: as §1, §2, §3, §4, §5

[7] = system: MB231Br (breast cancer metastasis to brain); test: Drug screening of MB231Br tumor foci on OBSCs
[8] = system: PIS patient tumor tissue (intracranial sarcoma); test: Drug screening of uncultured patient tumor tissue PIS on OBSCs; details: PIS patient tissue; scale -100 to +100
Description: as §2
To engraft onto OBSCs, the cryopreserved/thawed or fresh brain tumor tissue was filtered through a 100 μm cell strainer. Each 50 mg of tissue was transfected with 1mL mcherry-FLuc Lentivirus at 1.5e7 vg/ml with 1μL polybrene for 4h at 37°C. After incubation, the brain tumor tissue was washed with PBS three times to remove the residual virus and reconstituted in PBS with a final volume of 150 μL. Then the tissue solution was engrafted atop OBSCs at ∼0.5 mg tissue in 3 μL of PBS on each hemisphere of the slice. The OBSC engrafted with patient tumor tissue was incubated at 37°C with 5% CO2 and 95% humidity. The BSM was changed after 24h and subsequently every 3 days. Tumor treatment studies were executed as described above for tumor lines. The viability of the patient tissue was measured by an AMI optical imaging system with the addition of 1.5 mg/mL luciferin underneath the culture insert.
as §3, §4, §5

[9] = area under the dose-response curve, trapezoidal rule
[10] = dose required to kill 10% of the tumor
[11] = dose required to kill 25% of the tumor

In the case of `COc1cc([C@@H]2c3cc4c(cc3[C@@H](O[C@@H]3O[C@@H]5CO[C@@H](C)O[C@H]5[C@H](O)[C@H]3O)[C@H]3COC(=O)[C@H]23)OCO4)cc(OC)c1O` [Etoposide], the “Killing at highest dose” value [1] is reported as 4.40E-01 fraction of tumor population killed, the EC50 ([1]; Homo sapiens, LN-229, dose required to kill 50% of the tumor) is reported as greater than 10 µM and the EC90 ([1]; Homo sapiens, LN-229, dose required to kill 90% of the tumor) is reported as greater than 10 µM. The IC50 ([1]; Homo sapiens, LN-229, dosed day 1, survival via bioluminescence day 4, linear interpolation) was greater than 10 µM, the AUC [1, 9] was 6.48E+02 and the EC10 [1, 10] was 3.7 µM. The EC25 [1, 11] was 9.26 µM, the Slope ([1]; slope through the EC50) was -1.73E-04 and the EC50 ([2]; Homo sapiens, U373 MG, dose required to kill 50% of the tumor) was 37.8 µM. The EC90 ([2]; Homo sapiens, U373 MG, dose required to kill 90% of the tumor) was greater than 10 µM, the IC50 ([2]; Homo sapiens, U373 MG, dosed day 1, survival via bioluminescence day 4, linear interpolation) was 38 µM and the “Killing at highest dose” value [2] was 6.38E-01 fraction of tumor population killed. The AUC [2, 9] was 3.37E+02, the EC10 [2, 10] was 2.42 µM and the EC25 [2, 11] was 6.06 µM. For the same compound, the Slope ([2]; slope through the EC50) was -3.13E-03, the “Killing at highest dose” value ([3]; GBM8 on OBSCs) was 1.00E+00 fraction of tumor population killed and the AUC ([3]; GBM8 on OBSCs, area under the dose-response curve, trapezoidal rule) was 8.40E+00. The EC10 ([3]; GBM8 on OBSCs, dose required to kill 10% of the tumor) was 0.558 µM, the EC25 ([3]; GBM8 on OBSCs, dose required to kill 25% of the tumor) was 1.74 µM and the EC75 ([3]; GBM8 on OBSCs, dose required to kill 75% of the tumor) was 7.47 µM. For the same compound, the Slope ([3]; GBM8 on OBSCs, slope through the EC50) was -8.73E-02, the EC50 ([3]; Homo sapiens) was 4.6 µM and the EC90 ([3]; Homo sapiens) was 9.19 µM. It also gave an IC50 ([3]; Homo sapiens) of 5.2 µM, an EC50 ([4]; Homo sapiens) greater than 10 µM and an EC90 ([4]; Homo sapiens) greater than 10 µM. The “Killing at highest dose” value ([4]; MS21 on OBSCs) was -8.00E-02 fraction of tumor population killed, the AUC ([4]; MS21 on OBSCs, area under the dose-response curve, trapezoidal rule) was 1.15E+03 and the EC50 ([5]; Homo sapiens) was 574 µM. For the same compound, the EC90 ([5]; Homo sapiens) was greater than 10 µM, the IC50 ([5]; Homo sapiens) was 574 µM and the “Killing at highest dose” value ([5]; PDIPG on OBSCs) was 7.50E-01 fraction of tumor population killed. For the same compound, the AUC ([5]; PDIPG on OBSCs, area under the dose-response curve, trapezoidal rule) was 6.75E+02, the EC10 ([5]; PDIPG on OBSCs, dose required to kill 10% of the tumor) was 222 µM and the EC25 ([5]; PDIPG on OBSCs, dose required to kill 25% of the tumor) was 242 µM. The EC75 ([5]; PDIPG on OBSCs, dose required to kill 75% of the tumor) was 1000 µM, the Slope ([5]; PDIPG on OBSCs, slope through the EC50) was -5.87E-04 and the EC50 ([6]; Homo sapiens, U373 MG, U373 WT on OBSCs, dose required to kill 50% of the tumor) was 260 µM. The EC90 ([6]; Homo sapiens, U373 MG, U373 WT on OBSCs, dose required to kill 90% of the tumor) was greater than 10 µM, the IC50 ([6]; Homo sapiens, U373 MG, U373 WT on OBSCs, dosed day 1, survival via bioluminescence day 4, linear interpolation) was 260 µM and the “Killing at highest dose” value ([6]; U373 WT on OBSCs) was 3.30E-01 fraction of tumor population killed. For the same compound, the AUC ([6]; U373 WT on OBSCs, area under the dose-response curve, trapezoidal rule) was 6.12E+02, the EC10 ([6]; U373 WT on OBSCs, dose required to kill 10% of the tumor) was 25.6 µM and the EC25 ([6]; U373 WT on OBSCs, dose required to kill 25% of the tumor) was 65.4 µM. The Slope ([6]; U373 WT on OBSCs, slope through the EC50) was -1.26E-04, the “DSS (drug sensitivity score)” value ([6]; U373 WT, scale -100 to +100, tumor kill relative to OBSC toxicity) was −13 and the EC50 ([7]; Homo sapiens, MB231BR on OBSCs, dose required to kill 50% of the tumor) was 100 µM. For the same compound, the EC90 ([7]; Homo sapiens, MB231BR on OBSCs, dose required to kill 90% of the tumor) was greater than 10 µM, the IC50 ([7]; Homo sapiens, MB231Br on OBSCs, dosed day 1, survival via bioluminescence day 4, linear interpolation) was 100 µM and the “Killing at highest dose” value ([7]; MB231BR on OBSCs) was 7.20E-01 fraction of tumor population killed. It also gave an AUC ([7]; MB231BR on OBSCs, area under the dose-response curve, trapezoidal rule) of 4.75E+02, an EC10 ([7]; MB231BR on OBSCs, dose required to kill 10% of the tumor) of 5.26 µM and an EC25 ([7]; MB231BR on OBSCs, dose required to kill 25% of the tumor) of 25 µM. For the same compound, the Slope ([7]; MB231BR on OBSCs, slope through the EC50) was -3.00E-03 and the “DSS (drug sensitivity score)” value [8] was 80.
